Assays:
[1] = Inhibition of HCV NS3/4A protease using AcDTEDVVP(Nva)-O-PAP as substrate pretreated with substrate for 3 mins followed by enzyme addition measured after 60 mins by spectrophotometric method; design: species or system Hepacivirus hominis
[2] = Inhibition of HCV NS3/4A protease; design: species or system Hepacivirus hominis

Row | Compound | Ki [1] | IC50 [2]
1 | CC(C)(C)NC(=O)N[C@H](C(=O)N1C[C@H]2[C@@H]([C@H]1C(=O)NC(CC1CCC1)C(=O)C(N)=O)C2(C)C)C(C)(C)C (some centres undefined) [BOCEPREVIR] | 14 nM | 
2 | C=C[C@@H]1C[C@]1(NC(=O)[C@@H]1C[C@@H](Oc2ncc(OC)c3ccc(Cl)cc23)CN1C(=O)[C@@H](NC(=O)OC(C)(C)C)C(C)(C)C)C(=O)NS(=O)(=O)C1CC1 [ASUNAPREVIR] |  | 2.6 nM
3 | Cc1cnc(C(=O)N[C@H]2CCCCC/C=C\[C@@H]3C[C@@]3(C(=O)NS(=O)(=O)C3CC3)NC(=O)[C@@H]3C[C@@H](Oc4nc5ccccc5c5ccccc45)CN3C2=O)cn1 [PARITAPREVIR] |  | 0.18 nM
4 | CCC[C@H](NC(=O)[C@@H]1[C@H]2CCC[C@H]2CN1C(=O)[C@@H](NC(=O)[C@@H](NC(=O)c1cnccn1)C1CCCCC1)C(C)(C)C)C(=O)C(=O)NC1CC1 [TELAPREVIR] |  | 1030 nM

Source: ChEMBL document CHEMBL4020775, “QSAR studies of the bioactivity of hepatitis C virus (HCV) NS3/4A protease inhibitors by multiple linear regression (MLR) and support vector machine (SVM)” (Bioorg Med Chem Lett, 2017)
